From paper PMC6199744, “Development of Chemical Proteomics for the Folateome and Analysis of the Kinetoplastid Folateome” (ACS Infectious Diseases, 2018)
Read-outs that look alike come from different tables or passages of the source.

Experiments:
[1] = molecular target: methylene-THF-reductase (Homo sapiens, UniProt P42898); assay: Multitargeted bead mixture competition, HeLa cell extract; format: binding
[2] = system: haloacid dehalogenase-like hydrolase (LmjF.28.1370); assay: Multitargeted bead mixture competition; format: binding, Leishmania; settings: for fold change: protein LMJF.28.1370 HALOACID DEHALOGENASE-LIKE HYDROLASE, PUTATIVE, vehicle control = 1
[3] = system: methylthioadenosine phosphorylase (LmjF.05.0830); assay: Multitargeted bead mixture competition; format: binding, Leishmania; settings: for fold change vs vehicle control: protein LMJF.05.0830 METHYLTHIOADENOSINE PHOSPHORYLASE, PUTATIVE
[4] = molecular target: T1, MTHF complex (DHCH protein in humans) (Homo sapiens, UniProt P11586); assay: Multitargeted bead mixture competition, HeLa cell extract; format: binding
T1 sequence (P11586 1-935): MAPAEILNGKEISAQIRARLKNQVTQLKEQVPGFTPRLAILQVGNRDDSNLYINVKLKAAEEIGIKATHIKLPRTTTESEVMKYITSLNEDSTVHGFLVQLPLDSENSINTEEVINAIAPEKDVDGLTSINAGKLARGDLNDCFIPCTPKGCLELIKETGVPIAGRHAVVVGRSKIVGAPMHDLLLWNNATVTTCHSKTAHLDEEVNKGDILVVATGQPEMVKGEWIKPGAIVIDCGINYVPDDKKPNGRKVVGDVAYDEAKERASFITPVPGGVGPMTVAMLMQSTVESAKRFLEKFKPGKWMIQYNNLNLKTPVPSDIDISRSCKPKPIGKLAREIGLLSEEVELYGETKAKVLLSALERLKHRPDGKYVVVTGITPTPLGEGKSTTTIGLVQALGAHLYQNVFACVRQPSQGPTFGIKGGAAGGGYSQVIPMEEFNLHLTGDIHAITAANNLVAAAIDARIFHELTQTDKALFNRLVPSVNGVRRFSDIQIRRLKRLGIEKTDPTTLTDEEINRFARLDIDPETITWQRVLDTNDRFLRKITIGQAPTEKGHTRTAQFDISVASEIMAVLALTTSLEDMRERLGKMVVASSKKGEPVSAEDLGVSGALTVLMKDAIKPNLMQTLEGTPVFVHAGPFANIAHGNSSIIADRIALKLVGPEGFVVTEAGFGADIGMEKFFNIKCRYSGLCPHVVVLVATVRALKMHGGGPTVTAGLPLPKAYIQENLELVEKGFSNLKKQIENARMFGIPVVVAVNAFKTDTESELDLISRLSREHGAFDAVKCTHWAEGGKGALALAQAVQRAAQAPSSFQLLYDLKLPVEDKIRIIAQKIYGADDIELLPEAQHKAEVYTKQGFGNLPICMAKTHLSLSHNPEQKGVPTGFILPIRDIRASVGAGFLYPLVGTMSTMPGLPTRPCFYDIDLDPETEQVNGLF

[5] = system: phenylalanine-4-hydroxylase (PAH); assay: Multitargeted bead mixture competition; format: binding, L. major; settings: for binding and competition to phenylalanine-4-hydroxylase (PAH): bead mixture, L. major lysate; for fold change: protein LMJF.28.1280 PHENYLALANINE-4-HYDROXYLASE, vehicle control = 1; for fold change vs vehicle control: protein LMJF.28.1280 PHENYLALANINE-4-HYDROXYLASE,PHENYLALANINE-4-HYDROXYLASE, PUTATIVE
[6] = molecular target: variant surface glycoprotein 221 (VSM2.TRYBB) (Trypanosoma brucei brucei, UniProt P26332); format: binding, T. brucei; settings: for fold change - vehicle control / fold change: protein VSM2_TRYBB VARIANT SURFACE GL[…] 1.2; for fold change: vehicle control = 1
[7] = molecular target: T. brucei lysate proteins (Trypanosoma brucei brucei, UniProt P04789); format: binding
[8] = molecular target: T. brucei lysate proteins (Trypanosoma brucei brucei, UniProt P23799); format: binding; settings: for fold change - vehicle control: protein PUTATIVE ADENYLATE CYCLASE […] (ESAG8) (CZT00028390.1)
[9] = system: NGG1 INTERACTING FACTOR 3-LIKE (Tb427tmp.02.5000); format: binding; settings: for fold change: vehicle control = 1
[10] = molecular target: T2, MTHFS, the 5-formyl-THF-cyclo-ligase (Homo sapiens, UniProt P49914); assay: Multitargeted bead mixture competition, HeLa cell extract; format: binding; settings: for binding to MTHFS: bead mixture, HeLa cell extract
T2 sequence (P49914 1-203): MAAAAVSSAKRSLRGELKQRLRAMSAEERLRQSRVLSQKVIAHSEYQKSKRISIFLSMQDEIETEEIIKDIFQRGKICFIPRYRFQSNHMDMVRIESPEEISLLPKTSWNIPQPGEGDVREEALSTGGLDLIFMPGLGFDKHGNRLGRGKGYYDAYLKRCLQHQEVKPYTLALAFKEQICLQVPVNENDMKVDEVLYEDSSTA

[11] = system: CHOLINE KINASE (TB427TMP.18.0017); assay: Multitargeted bead mixture competition; format: binding, T. brucei; settings: for fold change - vehicle control / fold change vs vehicle control: protein TB427TMP.18.0017 CHOLINE KINASE; for fold change vs vehicle control: vehicle control = 1
[12] = molecular target: inosine-5′-monophosphate dehydrogenase (Tb927.10.16120) (Trypanosoma brucei brucei, UniProt P50098); assay: Multitargeted bead mixture competition; format: binding, T. brucei; settings: for fold change: protein TB927.10.16120 INOSINE-5'-MONOPHOSPHATE DEHYDROGENASE, vehicle control = 1
[13] = protein TB427TMP.02.3210 TRIOS[…]
[14] = protein TB427TMP.02.5000 NGG1 I[…] 3-LIKE
[15] = bead mixture, Leishmania lysates
[16] = HeLa, captured protein MTHFD1 (105 KDA PROTEIN.)
[17] = protein TB427TMP.02.3210 TRIOS[…], vehicle control = 1
[18] = protein CZT00028390.1 PUTATIVE ADENYLATE CYCLASE […] (ESAG8), vehicle control = 1
[19] = protein TB427TMP.02.5000 NGG1 INTERACTING FACTOR 3-LIKE
[20] = bead mixture, T. brucei lysates

Chain of methylene-THF-reductase (P42898 whole entry): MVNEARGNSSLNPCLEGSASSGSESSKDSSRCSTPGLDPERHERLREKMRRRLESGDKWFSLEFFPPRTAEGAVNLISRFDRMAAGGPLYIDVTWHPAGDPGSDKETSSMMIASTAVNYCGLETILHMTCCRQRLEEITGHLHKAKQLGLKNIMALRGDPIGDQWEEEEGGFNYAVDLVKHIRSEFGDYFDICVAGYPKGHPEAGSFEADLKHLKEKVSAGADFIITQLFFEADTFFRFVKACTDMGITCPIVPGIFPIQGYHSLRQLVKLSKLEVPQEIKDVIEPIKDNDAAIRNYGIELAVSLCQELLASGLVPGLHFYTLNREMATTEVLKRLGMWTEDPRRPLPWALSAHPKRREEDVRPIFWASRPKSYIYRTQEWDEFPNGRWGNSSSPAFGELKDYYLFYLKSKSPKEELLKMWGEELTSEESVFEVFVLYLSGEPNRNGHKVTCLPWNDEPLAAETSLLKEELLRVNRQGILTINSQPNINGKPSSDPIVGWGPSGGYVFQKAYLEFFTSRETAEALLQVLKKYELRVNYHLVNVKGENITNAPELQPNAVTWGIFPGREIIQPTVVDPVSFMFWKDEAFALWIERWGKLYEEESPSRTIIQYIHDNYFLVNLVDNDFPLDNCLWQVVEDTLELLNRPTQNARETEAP

SMILES	fold changes relative to vehicle control ([1]; captured protein MTHFR, HeLa)	fold change [2]	fold change vs vehicle control [3]	fold changes relative to vehicle control ([4]; HeLa, protein MTHFD1)	fold change [5]	fold change - vehicle control [6]	fold change - vehicle control [7, 13]	fold change - vehicle control [8]	fold change [9, 14]	fold changes relative to vehicle control ([10]; captured protein MTHFS, HeLa)	fold change - vehicle control [11]	fold change [12]	fold changes relative to vehicle control ([1]; protein MTHFR, HeLa)	fold changes relative to vehicle control [4, 16]	fold change vs vehicle control [5]	fold change [6]	fold change vs vehicle control [7, 17]	fold change vs vehicle control [8, 18]	fold changes relative to vehicle control ([10]; protein MTHFS, HeLa)	fold change vs vehicle control [11]	also measured
Nc1nc2cccc(-c3ccccc3)c2n1Cc1ccc(Cl)c(Cl)c1 [compound 3]	1.06	1.07	0.94	1.01	0.81	0.67	0.75	0.98	1.02	0.96	1	1									binding and competition to phenylalanine-4-hydroxylase (PAH) [5]: binding and competition; percentage of competition from bead binding ([9]; multitargeted bead mixture, free ligand 100 μM, T. brucei lysate, Tb427tmp.02.5000): -6%; percentage of competition from bead binding ([11]; multitargeted bead mixture, free ligand 100 μM, T. brucei lysate, TB427TMP.18.0017 CHOLINE KINASE): -1%
CCCCCCOc1ccc(Cc2cnc(N)nc2N)cc1 [compound 1]	0.27	0.13	0.19	0.05	1.16	1.43	0.88	1.15	1.08	0.21	1.05	0.93									interaction with haloacid dehalogenase-like hydrolase (LmjF.28.1370) [2, 15]: interacted strongly; binding to methylthioadenosine phosphorylase (LmjF.05.0830) [3, 15]: bound
NCCCNc1ccc(C(=O)NC(CCC(=O)O)C(=O)O)cc1 (stereo not shown) [compound 7]		1.02	1.02						1.16			1.04	1	1	1.02	0.81	1.05	0.95	1.03	1.16	
CCCCCCOc1cccc(Cc2cnc(N)nc2N)c1 [compound 2]	0.58	1	0.89	0.84	1.1	1.6	0.98	0.97		0.89	1.11	1.03									fold change [9, 19]: 1.1
NCCOCCOCC(=O)Nc1nc2ncc(CNc3ccc(C(=O)NC(CCC(=O)O)C(=O)O)cc3)nc2c(=O)[nH]1 (stereo not shown) [compound 6]		0.89	0.96									1	0.84	0.92	0.99	2.16	1.54	1.1	0.5	1.05	fold change [9, 19]: 0.68
Nc1nc2[nH]cc(CCc3ccc(C(=O)N[C@@H](CCC(=O)O)C(=O)O)cc3)c2c(=O)[nH]1 [PTX, pemetrexed]		0.93	0.91						1.01			0.49			0.28	0.39				0.98	fold changes relative to vehicle control [1]: 0.47; fold changes relative to vehicle control [4]: 0.72; binding and competition to phenylalanine-4-hydroxylase (PAH) [5]: binding and competition; binding to variant surface glycoprotein 221 (VSM2.TRYBB) [6, 20]: bound specifically; fold change vs vehicle control [7]: 0.63; fold change vs vehicle control [8]: 1.01; fold changes relative to vehicle control [10]: 0.17; binding to MTHFS [10]: bound MTHFS; binding to inosine-5′-monophosphate dehydrogenase (Tb927.10.16120) [12, 20]: appeared to bind
Nc1nc2c(c(=O)[nH]1)N(C=O)C(CNc1ccc(C(=O)N[C@@H](CCC(=O)O)C(=O)O)cc1)CN2 (stereo partly shown) [LEU, leucovorin]		1.05	0.96									1.11	0.52	0.61	0.99	3.08	2.16	1.17	0.15	0.95	fold change [9, 19]: 0.98; binding to MTHFS [10]: bound MTHFS
